Reference: patent publication US20230391765A1, “HETEROBIFUNCTIONAL COMPOUNDS AS DEGRADERS OF ENL” (ICAHN SCHOOL OF MEDICINE AT MOUNT SINAI, priority 2020, published 2023)

Experiments:
Type in all cases: cell-based
[1] = tested on: ENL-dependent MV4; 11 cells; assay: Cell viability (CellTiter-Glo), MV4; 11 cells
Experimental: (§1) MV4; 11 (FIG. 13A), MOLM13 (FIG. 13B) and Jurkat (FIG. 13C) cells were seeded at 2×10^5 cells/mL density and treated with DMSO or indicated compounds 0.5, 1, 2 and 4 μM for 72 h. Cell viability was measured using CellTiter-Glo reagent (Promega) and relative cell viability was calculated by normalization to DMSO samples.
(§2) ENL-dependent MV4; 11 cells were seeded at 2×10^5 cells/mL density and treated with DMSO or the indicated compounds at 0, 1.25, 2.5, 5 and 10 μM for 72 h. Cell viability was measured using CellTiter-Glo reagent (Promega) and relative cell viability was calculated by normalization to DMSO samples.
as §2, with “11 and ENL-independent Jurkat” for “11”, “or” for “or the”, “10 nM, 100 nM, 1 μM” for “0, 1.25, 2.5, 5”, “3 days (A) or 6 days (B).” for “72 h.”
(§3) MV4; 11 or MOLM13 cells were seeded at 0.2×10^6 cells/mL density. Cells were treated with DMSO or ENL degraders at indicated concentrations. Each treatment was done in triplicates. After 72 h treatment, 100 μL of cell suspension from each treatment was mixed with 25 μL of CellTiter-Glo reagent (Promega) and incubated for 10 min before the luminescence signals were detected on a plate reader.

ENL [2] = target: T1, ENL (Homo sapiens, UniProt Q03111); assay: Western blot of ENL protein levels in MV4; 11 cells; settings: 11 cells; for ENL protein level after long treatment: 1 μM for 48 and 72 h
T1 construct: Cells were lysed and expression of endogenous ENL was assessed by Western blot analysis; host or cells: MV4;11
T1 sequence (Q03111 1-559): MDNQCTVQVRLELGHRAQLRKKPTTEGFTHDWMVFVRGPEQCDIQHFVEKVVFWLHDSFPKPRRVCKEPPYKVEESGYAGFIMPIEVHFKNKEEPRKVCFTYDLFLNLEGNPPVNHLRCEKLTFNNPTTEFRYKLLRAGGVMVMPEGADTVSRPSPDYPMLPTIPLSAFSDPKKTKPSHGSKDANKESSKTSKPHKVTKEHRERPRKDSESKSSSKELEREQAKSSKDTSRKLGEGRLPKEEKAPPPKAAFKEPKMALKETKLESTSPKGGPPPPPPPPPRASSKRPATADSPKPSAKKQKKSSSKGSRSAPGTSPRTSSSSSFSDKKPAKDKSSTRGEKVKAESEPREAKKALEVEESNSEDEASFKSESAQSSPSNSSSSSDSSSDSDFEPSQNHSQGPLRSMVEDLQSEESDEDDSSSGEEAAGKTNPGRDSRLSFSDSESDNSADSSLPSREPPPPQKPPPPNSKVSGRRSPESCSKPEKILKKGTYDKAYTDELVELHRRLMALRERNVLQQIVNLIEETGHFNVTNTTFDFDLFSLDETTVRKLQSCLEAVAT
Experimental: MV4; 11 cells were treated with DMSO or the indicated compounds (the same panel of ENL degraders as shown in FIG. 4) at 1 μM and 10 μM for 24 h. Cells were lysed and expression of ENL was assessed by Western blot analysis.
DMSO treated cells were used as control.
MV4; 11 cells were treated with LQ076-122, or LQ081-107 at 0.3, 1, 3, 10, and 30 μM for 24 h. DMSO treated cells were used as control. Cells were lysed and expression of ENL and GAS41 was assessed by Western analysis.
MV4; 11 cells were treated with DMSO or the indicated compounds at 1 μM and 10 μM for 6 h. Cells were lysed and expression of endogenous ENL was assessed by Western blot analysis.
Cells were treated with 1 μM of ENL degrader with or without 1 μM proteasome inhibitor MG132 for 6 h.
(§4) ENL degraders were dissolved in DMSO. DMSO with no degraders was used as the control. 1×10^6 leukemia cells were seeded in 5 mL medium. For prescreening of compounds, each test compound was added to the medium at 1 μM and 10 μM. Cells were collected after 24 h treatment. For the concentration-dependent treatment, candidate compounds were added to the medium at a series of concentration as indicated in figures. Cells were collected after 24 h treatment. For the time-course treatment, candidate compounds were added to the medium at a final concentration of 4 μM (MV4; 11 cells) or 8 μM (MOLM13 cells). Cells were collected at the indicated timepoints (in hours: 12, 16, 20, 24 and 36 h).
(§5) After ENL degrader treatment, cells were collected, lysed, and total cell lysates were used for Western blot. The following primary antibodies were used: ENL (Cell Signaling Technology), GAS41 (Santa Cruz), GAPDH (Santa Cruz), β-actin (Sigma). Blots were detected using HRP-conjugated secondary antibodies.

[3] = tested on: ENL-dependent MOLM13 leukemia cells; assay: Cell viability (CellTiter-Glo), MOLM13 cells; settings: MOLM13 cells, 0.5, 1, 2 and 4 μM for 72 h
Experimental: as §1, §3

ENL [4] = target: T1, ENL; assay: Western blot of ENL protein levels in MOLM13 cells; settings: for reduction of ENL protein levels: 1 nM to 10 μM for 6 h; for ENL protein level after long treatment: 1 μM for 48 and 72 h
Experimental: MOLM13 cells were treated with LQ076-122 or LQ081-108 at 0, 0.25, 0.5, 1, 1.5, 2, 2.5, 3, 4 and 8 μM for 24 h.
MOLM13 cells were treated with DMSO or 8 μM of LQ076-122 for 12, 16, 20, 24 and 36 h.
MV4; 11, MOLM13 and Jurkat cells were treated with LQ108-69, LQ108-71, LQ108-72, LQ126-62 and LQ126-63 at 0, 1 nM, 10 nM, 100 nM, 1 μM, and 10 μM doses for 6 h. DMSO was used as negative control.
as §4, §5

ENL [5] = target: T1, ENL; assay: Western blot of ENL protein levels in Jurkat cells; settings: for reduction of ENL protein levels: 1 nM to 10 μM for 6 h; for ENL protein level after long treatment: 1 μM for 48 and 72 h
Excerpt: […] DMSO was used as negative control.
as §5

[6] = 11 cells, 1.25, 2.5, 5 and 10 μM for 72 h

ENL protein level after long treatment (ENL [4]) | ENL protein level after long treatment (ENL [2]) | ENL protein level after long treatment (ENL [5]) | effect of proteasome inhibitor MG132 on the ENL degradation induced by the degrader (ENL [2]; 1 μM degrader with or without 1 μM MG132 for 6 h) | SMILES | suppression of cell growth (relative cell viability) ([1]; 11 cells, 0.5, 1, 2 and 4 μM for 72 h) | reduction of ENL protein levels (ENL [2]; 0-8 μM for 24 h) | reduction of ENL protein levels (ENL [2]; 10 μM, 24 h) | suppression of cell growth (relative cell viability) [3] | reduction of ENL protein levels (ENL [4]) | suppression of cell growth (relative cell viability) [1, 6] | reduction of ENL protein levels (ENL [2]; 1 nM to 10 μM for 6 h) | reduction of ENL protein levels (ENL [5])
– | – | – | – | Cc1ncsc1-c1ccc([C@H](C)NC(=O)[C@@H]2C[C@@H](O)CN2C(=O)[C@@H](NC(=O)CCCCCCCCCCCNC(=O)c2ccc(C(=O)Nc3ccc4[nH]c(CN5CCC[C@@H]5C)nc4c3)cc2)C(C)(C)C)cc1 [LQ081-109, N^1-(12-(((S)-1-((2S,4R)-4-hydroxy-2-(((S)-1-(4-(4-methylthiazol-5-yl)phenyl)ethyl)carbamoyl)pyrrolidin-1-yl)-3,3-dimethyl-1-oxobutan-2-yl)amino)-12-oxododecyl)-N^4-(2-(((S)-2-methylpyrrolidin-1-yl)methyl)-1H-benzo[d]imidazol-5-yl)terephthalamide] | selectively suppressed cell growth | reduced ENL protein levels in a concentration-dependent manner | effective in reducing ENL protein levels | selectively suppressed cell growth | – | – | – | –
maintained the ENL protein at low levels | maintained the ENL protein at low levels | maintained the ENL protein at low levels | – | Cc1ncsc1-c1ccc([C@H](CC(=O)NCCCCCCCCNC(=O)c2ccc3c(c2)[C@H](NC(=O)c2cc(-c4ccc(C(=O)N(C)C)c(O)c4)on2)CC3)NC(=O)[C@@H]2C[C@@H](O)CN2C(=O)[C@@H](NC(=O)C2(F)CC2)C(C)(C)C)cc1 [LQ108-71, 5-(4-(dimethylcarbamoyl)-3-hydroxyphenyl)-N—((R)-6-((8-((S)-3-((2S,4R)-1-((S)-2-(1-fluorocyclopropane-1-carboxamido)-3,3-dimethylbutanoyl)-4-hydroxypyrrolidine-2-carboxamido)-3-(4-(4-methylthiazol-5-yl)phenyl)propanamido)octyl)carbamoyl)-2,3-dihydro-1H-inden-1-yl)isoxazole-3-carboxamide] | – | – | – | – | reduced ENL protein levels in a concentration-dependent manner | significantly suppressed MV4; 11 cell growth at low micromolar concentration | reduced ENL protein levels in a concentration-dependent manner | reduced ENL protein levels in a concentration-dependent manner
maintained the ENL protein at low levels | maintained the ENL protein at low levels | maintained the ENL protein at low levels | – | Cc1ncsc1-c1ccc([C@H](CC(=O)NCCCCCCCCCNC(=O)c2ccc3c(c2)[C@H](NC(=O)c2cc(-c4ccc(C(=O)N(C)C)c(O)c4)on2)CC3)NC(=O)[C@@H]2C[C@@H](O)CN2C(=O)[C@@H](NC(=O)C2(F)CC2)C(C)(C)C)cc1 [LQ108-72, 5-(4-(dimethylcarbamoyl)-3-hydroxyphenyl)-N—((R)-6-((9-((S)-3-((2S,4R)-1-((S)-2-(1-fluorocyclopropane-1-carboxamido)-3,3-dimethylbutanoyl)-4-hydroxypyrrolidine-2-carboxamido)-3-(4-(4-methylthiazol-5-yl)phenyl)propanamido)nonyl)carbamoyl)-2,3-dihydro-1H-inden-1-yl)isoxazole-3-carboxamide] | – | – | – | – | reduced ENL protein levels in a concentration-dependent manner | significantly suppressed MV4; 11 cell growth at low micromolar concentration | reduced ENL protein levels in a concentration-dependent manner | reduced ENL protein levels in a concentration-dependent manner
maintained the ENL protein at low levels | maintained the ENL protein at low levels | maintained the ENL protein at low levels | partially blocks the ENL degradation | Cc1ncsc1-c1ccc(CNC(=O)[C@@H]2C[C@@H](O)CN2C(=O)[C@@H](NC(=O)CCCCCCCCCNC(=O)c2ccc3c(c2)[C@H](NC(=O)c2cc(-c4ccc(C(=O)N(C)C)c(O)c4)on2)CC3)C(C)(C)C)cc1 [LQ126-62, 5-(4-(dimethylcarbamoyl)-3-hydroxyphenyl)-N—((R)-6-((10-(((S)-1-((2S,4R)-4-hydroxy-2-((4-(4-methylthiazol-5-yl)benzyl)carbamoyl)pyrrolidin-1-yl)-3,3-dimethyl-1-oxobutan-2-yl)amino)-10-oxodecyl)carbamoyl)-2,3-dihydro-1H-inden-1-yl)isoxazole-3-carboxamide] | – | – | – | – | reduced ENL protein levels in a concentration-dependent manner | significantly suppressed MV4; 11 cell growth at low micromolar concentration | reduced ENL protein levels in a concentration-dependent manner | reduced ENL protein levels in a concentration-dependent manner
